Literature values as cited in US8476259B2, “Fasudil in combination therapies for the treatment of pulmonary arterial hypertension” (Asahi Kasei Pharma Corporation, priority 2005, dated 2013).
Read-outs that look alike come from different tables or passages of the source. Values belong to the compound of their own block, whether it stands above or below them.

How the values were obtained:
Rho-kinase [1] = settings: administered to rats
PAH = settings: oral
[2] = tested on: progressive pulmonary arterial hypertension; settings: two experimental models
Rho-kinase [3] = settings: read-out: K(i) value for Rho-kinase
[4] = tested on: pulmonary hypertension in rats; settings: for pulmonary vasodilation: spontaneous PH in fawn-hooded rats
chronically hypoxic rats = settings: for high pulmonary arterial pressure: intravenous or oral treatment
chronic hypoxic mice = settings: for development of chronic hypoxia-induced PH: intravenous or oral treatment
[5] = tested on: monocrotaline-induced PH in rats; settings: for pulmonary arterial lesions: intravenous or oral treatment
[6] = tested on: rat models of systemic hypertension; settings: oral
[7] = tested on: patients with severe pulmonary hypertension; settings: intravenous
patients with severe PAH = settings: versus placebo
[8] = tested on: patients with pulmonary hypertension; settings: aerosolization
rats injected with IL-6 = settings: simultaneous treatment
[9] = tested on: spontaneously hypertensive rats; settings: rat, in vivo
[10] = tested on: patients with Raynaud's phenomenon and systemic sclerosis; settings: human, in vivo
[11] = tested on: patients with angiographically proven stable angina
[12] = in vivo
[13] = inhaled, monocrotaline-induced PH, chronically hypoxic rats
[14] = all 20 patients, 100 mg 3 times a day, 2 weeks
[15] = subgroup (n=8) with well-developed collaterals

inhibitory effect on Rho-kinase (Rho-kinase [1]): lack the inhibitory effect on Rho-kinase
Structure (SMILES): CC#CCC(C)[C@H](O)/C=C/[C@@H]1[C@H]2c3cccc(CCCC(=O)O)c3O[C@H]2C[C@H]1O (mixture of isomers) [beraprost]
benefit in PAH over time (PAH): benefit in a study in PAH at 3 and 6 months but not at 9 or 12 months

Structure (SMILES): Cc1ccc(NC(=O)c2ccc(CN3CCN(C)CC3)cc2)cc1Nc1nccc(-c2cccnc2)n1 [Gleevec]
lung vascular remodeling, pulmonary hypertension and right heart hypertrophy [2]: virtually complete reversal

Structure (SMILES): Cc1cncc2cccc(S(=O)(=O)N3CCCNC[C@@H]3C)c12 [H-1152P, (S)-(+)-2-methyl-1-[(4-methyl-5-isoquinoline)sulfonyl]-homopiperazine]
Ki (Rho-kinase [3]): 1.6 nM

Structure (SMILES): C[C@@H](N)[C@H]1CC[C@H](C(=O)Nc2ccncc2)CC1 [Y-27632]
mean pulmonary arterial pressure ([4]; 5 minutes of inhaled Y-27632): decreased mean pulmonary arterial pressure without reducing mean systemic arterial pressure | duration of hypotensive effect on hypoxic pulmonary hypertension ([4]; inhaled): at least 5 hrs | pulmonary vasodilation [4, 13]: sustained and selective pulmonary vasodilation | elevated pulmonary artery pressure, acute effect (chronically hypoxic rats; intravenous): nearly normalized the elevated pulmonary artery pressure | high pulmonary arterial pressure (chronically hypoxic rats): nearly normalizes | development of chronic hypoxia-induced PH (chronic hypoxic mice): attenuates | pulmonary arterial lesions [5]: reduces pulmonary arterial lesions | hypotensive effect ([6]; normotensive rats): smaller transient effect | hypotensive effect ([6]; rat models of systemic hypertension): potent hypotensive effects

Structure (SMILES): COc1ccccc1Oc1c(NS(=O)(=O)c2ccc(C(C)(C)C)cc2)nc(-c2ncccn2)nc1OCCO [bosentan]
liver toxicity (higher dose): liver toxicity occurred with the higher dose | six minute walk test (whole group, greater improvement at higher doses): improved

Structure (SMILES): O=S(=O)(c1cccc2cnccc12)N1CCCNCC1 [fasudil, 1-(5-isoquinolinesulfonyl)-homopiperazine]
mean pulmonary arterial pressure ([4]; inhaled fasudil, monocrotaline-induced PH, spontaneous PH, chronically hypoxic rats): selective mean pulmonary arterial pressure reductions | pulmonary vasodilation [4, 13]: sustained and selective pulmonary vasodilation | high pulmonary arterial pressure (chronically hypoxic rats): nearly normalizes | development of chronic hypoxia-induced PH (chronic hypoxic mice): attenuates | pulmonary arterial lesions [5]: reduces pulmonary arterial lesions | pulmonary vascular resistance [7]: significantly reduced | side effects [7]: without side effects

Structure (SMILES): CC#CCC(C)[C@H](O)/C=C/[C@@H]1[C@H]2C/C(=C/CCCC(=O)O)C[C@H]2C[C@H]1O (some centres unmarked) [iloprost]
exercise capacity (patients with severe PAH): improved exercise capacity

inhibitory effect on Rho-kinase (Rho-kinase [1]): lack the inhibitory effect on Rho-kinase
Structure (SMILES): CCCCC[C@H](O)/C=C/[C@@H]1[C@H]2C/C(=C/CCCC(=O)O)O[C@H]2C[C@H]1O [prostacyclin]
duration of effects [8]: 15 min

Structure (SMILES): COc1cccc(CCc2ccccc2OCC(CN(C)C)OC(=O)CCC(=O)O)c1 (centres unmarked) [sarpogrelate, (φ-amino-alkoxy)phenyl-ethylethylbenzene]
pulmonary vascular remodeling, right side heart failure and mortality ([5]; immediately following monocrotaline injection): suppressed the severe pulmonary vascular remodeling and right side heart failure and reduced mortality | reversal of established pulmonary hypertension ([5]; late treatment): failed to reverse established pulmonary hypertension | number of proliferating cell nuclear antigen-positive cells ([5]; rat, in vivo): reduced | severity of pulmonary hypertension (medial thickness of small pulmonary arteries and right ventricle/left ventricle and septum ratio) ([5]; rat, in vivo): reduced | thickening of the alveolar walls and interstitial inflammatory cell infiltration ([5]; rat, in vivo): reduced | IL-6-induced increase in medial thickness of small pulmonary arteries and right ventricular hypertrophy (rats injected with IL-6): prevented | systolic blood pressure or heart weight [9]: no effect | respiratory failure and mean pulmonary arterial pressure [10]: significantly decreased | SAS score [11, 14]: significantly increased | exercise time to the onset of 0.1-mV ST depression [11, 14]: prolonged | all parameters ([11]; patients (n=12) without well-developed collaterals): not significantly changed | SAS score [11, 15]: 6.2±1.3 METS | increase of double product at the onset of 0.1-mV ST depression [11, 15]: 15% | time to the onset of 0.1-mV ST depression [11, 15]: 295 ± 127 s

Structure (SMILES): CCCc1nn(C)c2c(=O)[nH]c(-c3cc(S(=O)(=O)N4CCN(C)CC4)ccc3OCC)nc12 [sildenafil]
pulmonary arterial pressure (chronically hypoxic rats; sildenafil, chronic hypoxic rats): reduces | right ventricular hypertrophy (chronic hypoxic mice; chronic hypoxic mice): reduces right ventricular hypertrophy | survival rate ([5]; PH induced by monocrotaline injection): improves survival rate

Structure (SMILES): Cc1cc2c(cc1CC(=O)c1sccc1S(=O)(=O)Nc1onc(C)c1Cl)OCO2 [sitaxsentan]
decrease in pulmonary vascular resistance [12]: 30% | six minute walk test [12]: improvement
